Experiments:
FaDu sphere cultures = experiment: qPCR cancer stem cell array in FaDu sphere cultures; type: cell-based; design: % Change ATM / % Change MERTK / % Change NOTCH2 / % Change LATS1 / % Change ITGA2 / % Change SMO / % Change TGFBR1 / % Change MAML1 / % Change WWC1 / % Change ITGA6 / % Change ITGB1 / % Change AXL / % Change KITLG / % Change JAK2 / % Change YAP1 / % Change BMI1 / % Change NOTCH1 / % Change ATXN1 / % Change ERBB2 / % Change SIRT1 / % Change WEE1 / % Change FGFR2 / % Change DDR1 / % Change GSK3B / % Change ENG / % Change DACH1 / % Change ALCAM / % Change HDAC1 / % Change CD44 / % Change HPRT1 / % Change IKBKB / % Change DNMT1 / % Change ETFA / % Change FOXP1 / % Change FLOT2 / % Change CHEK1 / % Change MUC1 / % Change CD24 / % Change NFKB1 / % Change NANOG / % Change ACTB / % Change EPCAM / % Change STAT3 / % Change TWIST2 / % Change PLAUR / % Change EGF / % Change ALDH1A1 / % Change RPLP0 / % Change TAZ / % Change JAG1 / % Change KLF17 / % Change ID1 / % Change ITGA4 / % Change IL8 / % Change MYC / % Change CD34 / % Change LIN28A / % Change POU5F1 / % Change PECAM1: dose or concentration left out as unconfirmed; conditions: 6 hours, normalized to GAPDH
Method: The changes in gene expression following treatment with BBI608 were analyzed. FaDu sphere cultures were treated for 6 hours with DMSO (control) or BBI608 at […]. Total RNA was isolated, reversed transcribed and the generated cDNA was analyzed using a qPCR cancer stem cell array. Data was normalized to the expression of the house keeping gene, GAPDH.

CD8^+ T cells = experiment: Tumor infiltrating CD8+ T cells in Apc^Min/+ mouse model of colon cancer (immunofluorescence); type: in vivo, Apc^Min/+ C57BL/6J mice; conditions: BBI608 200 mg/kg p.o. q.d. 4 days, vs control group
Method: At the end of treatment, tumors were harvested from euthanized mice. Part of the dissected tumors were fixed overnight in 3.7% or 10% neutral buffered formaldehyde at 4° C., and then paraffin embedded, cut to 4-5 micron sections, and affixed onto positively charged slides. After baking and deparaffinization, the slides with tumor or control tissues were incubated in a 10 mM sodium citrate solution pH=6.0 for antigen retrieval at 98° C. […] After mounting in ProLong mounting medium containing DAPI (Invitrogen), the slides were examined on a Zeiss Axio Imager M2 upright fluorescence microscope with a 20× objective and analyzed with Zen software.
All animals were housed in Association for Assessment and Accreditation of Laboratory Animal Care-approved facilities in static microisolator cages. […] Body weight and clinical signs were monitored throughout the course of the treatment. […]
CD8^+ levels were analyzed by immunofluorescence.

CC(=O)c1cc2c(o1)C(=O)c1ccccc1C2=O [BBI608, 2-acetylnaphtho[2,3-b]furan-4,9-dione]
% Change ACTB (FaDu sphere cultures; gene ACTB): −24.49% | % Change ALCAM (FaDu sphere cultures; gene ALCAM): −36.13% | % Change ALDH1A1 (FaDu sphere cultures; gene ALDH1A1): −18.18% | % Change ATM (FaDu sphere cultures; gene ATM): −68.65% | % Change ATXN1 (FaDu sphere cultures; gene ATXN1): −45.26% | % Change AXL (FaDu sphere cultures; gene AXL): −48.50% | % Change B2M (FaDu sphere cultures; gene B2M): −27.69% | % Change BMI1 (FaDu sphere cultures; gene BMI1): −47.40% | % Change CD24 (FaDu sphere cultures; gene CD24): −26.46% | % Change CD34 (FaDu sphere cultures; gene CD34): −88.18% | % Change CD44 (FaDu sphere cultures; gene CD44): −35.44% | % Change CHEK1 (FaDu sphere cultures; gene CHEK1): −28.88% | % Change DACH1 (FaDu sphere cultures; gene DACH1): −36.55% | % Change DDR1 (FaDu sphere cultures; gene DDR1): −38.59% | % Change DNMT1 (FaDu sphere cultures; gene DNMT1): −32.09% | % Change EGF (FaDu sphere cultures; gene EGF): −19.07% | % Change ENG (FaDu sphere cultures; gene ENG): −37.62% | % Change EPCAM (FaDu sphere cultures; gene EPCAM): −22.87% | % Change ERBB2 (FaDu sphere cultures; gene ERBB2): −43.81% | % Change ETFA (FaDu sphere cultures; gene ETFA): −31.12% | % Change FGFR2 (FaDu sphere cultures; gene FGFR2): −41.18% | % Change FLOT2 (FaDu sphere cultures; gene FLOT2): −29.19% | % Change FOXP1 (FaDu sphere cultures; gene FOXP1): −29.76% | % Change GSK3B (FaDu sphere cultures; gene GSK3B): −38.06% | % Change HDAC1 (FaDu sphere cultures; gene HDAC1): −36.10% | % Change HPRT1 (FaDu sphere cultures; gene HPRT1): −33.81% | % Change ID1 (FaDu sphere cultures; gene ID1): −12.68% | % Change IKBKB (FaDu sphere cultures; gene IKBKB): −32.11% | % Change IL8 (FaDu sphere cultures; gene IL8): −7.62% | % Change ITGA2 (FaDu sphere cultures; gene ITGA2): −60.71% | % Change ITGA4 (FaDu sphere cultures; gene ITGA4): −11.52% | % Change ITGA6 (FaDu sphere cultures; gene ITGA6): −54.63% | % Change ITGB1 (FaDu sphere cultures; gene ITGB1): −50.45% | % Change JAG1 (FaDu sphere cultures; gene JAG1): −14.24% | % Change JAK2 (FaDu sphere cultures; gene JAK2): −47.94% | % Change KITLG (FaDu sphere cultures; gene KITLG): −47.99% | % Change KLF17 (FaDu sphere cultures; gene KLF17): −90.18% | % Change LATS1 (FaDu sphere cultures; gene LATS1): −60.75% | % Change LIN28A (FaDu sphere cultures; gene LIN28A): −87.52% | % Change MAML1 (FaDu sphere cultures; gene MAML1): −52.82% | % Change MERTK (FaDu sphere cultures; gene MERTK): −65.78% | % Change MUC1 (FaDu sphere cultures; gene MUC1): −27.42% | % Change MYC (FaDu sphere cultures; gene MYC): −3.91% | % Change NANOG (FaDu sphere cultures; gene NANOG): −93.34% | % Change NFKB1 (FaDu sphere cultures; gene NFKB1): −25.54% | % Change NOTCH1 (FaDu sphere cultures; gene NOTCH1): −46.24% | % Change NOTCH2 (FaDu sphere cultures; gene NOTCH2): −64.37% | % Change PECAM1 (FaDu sphere cultures; gene PECAM1): −70.26% | % Change PLAUR (FaDu sphere cultures; gene PLAUR): −20.64% | % Change POU5F1 (FaDu sphere cultures; gene POU5F1): −77.31% | % Change RPLP0 (FaDu sphere cultures; gene RPLP0): −17.48% | % Change SIRT1 (FaDu sphere cultures; gene SIRT1): −43.35% | % Change SMO (FaDu sphere cultures; gene SMO): −55.56% | % Change STAT3 (FaDu sphere cultures; gene STAT3): −22.87% | % Change TAZ (FaDu sphere cultures; gene TAZ): −15.09% | % Change TGFBR1 (FaDu sphere cultures; gene TGFBR1): −53.34% | % Change TWIST2 (FaDu sphere cultures; gene TWIST2): −21.59% | % Change WEE1 (FaDu sphere cultures; gene WEE1): −42.86% | % Change WWC1 (FaDu sphere cultures; gene WWC1): −51.64% | % Change YAP1 (FaDu sphere cultures; gene YAP1): −47.45% | number of tumor infiltrating CD8^+ T cells (CD8^+ T cells): increased the number of tumor infiltrating CD8^+ T cells significantly

From US20180140572A1, “COMPOSITIONS COMPRISING A CANCER STEMNESS INHIBITOR AND AN IMMUNOTHERAPEUTIC AGENT FOR USE IN TREATING CANCER” (Boston Biomedical, Inc., priority 2015, published 2018)
